Data on 5 molecules can be found in patent US6482827B1, “Matrix metalloproteinase inhibitors” (Pharmacia & Upjohn S.p.A., priority 1997, dated 2002).

Converted amounts (≈) assume the structure as drawn.

One data set is described as follows: Aqueous solubility. It counts as physicochemical. The note with it: water; 25° C., Conditions B.
A short description of data set [1]: PK parameters, oral route, cynomolgus monkey. It counts as in vivo. The note with it: 10-15 mg/kg. Here is the method: (§1) As an additional example, Table 4 reports the maximum plasma concentration (Cmax) and oral bioavailability (% F; calculated from dose-normalised ratio of oral to i.v. mean AUC values) after oral administration to rats or cynomolgus monkeys of a […] of some representative compounds of the present invention.

The nature of data set [2]: PK parameters, oral route, rat. In kind it is in vivo. The note with it: 10-15 mg/kg; for bioavailability: read-out: % F (oral bioavailability). How it is done: as §1
Data set [3] concerns the target T1, Human gelatinase-A (MMP-2) (Homo sapiens, UniProt P08253).
T1 sequence (P08253 110-660): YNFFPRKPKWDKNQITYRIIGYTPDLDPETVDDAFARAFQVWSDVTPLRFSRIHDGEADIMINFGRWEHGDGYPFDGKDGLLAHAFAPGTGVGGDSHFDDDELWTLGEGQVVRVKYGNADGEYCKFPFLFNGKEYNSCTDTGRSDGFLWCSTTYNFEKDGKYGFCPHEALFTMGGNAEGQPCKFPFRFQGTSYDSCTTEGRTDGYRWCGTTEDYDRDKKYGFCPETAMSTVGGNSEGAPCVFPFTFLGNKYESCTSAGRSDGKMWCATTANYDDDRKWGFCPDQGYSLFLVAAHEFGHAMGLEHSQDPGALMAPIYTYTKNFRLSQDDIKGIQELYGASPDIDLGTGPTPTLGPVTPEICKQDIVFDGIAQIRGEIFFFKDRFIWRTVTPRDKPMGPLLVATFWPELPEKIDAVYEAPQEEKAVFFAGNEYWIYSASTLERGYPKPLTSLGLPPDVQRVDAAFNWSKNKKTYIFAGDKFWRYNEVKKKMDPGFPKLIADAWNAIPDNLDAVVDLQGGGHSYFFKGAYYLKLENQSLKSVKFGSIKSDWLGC
Briefly: Biochemical assay (Protocol A), Ki at steady state, MMP-2. The note with it: preincubation, 37° C., pH=7.4, read-out: Ki at steady state (Ki*) for inhibition of MMP-2. How it is done:
(§2) Human gelatinase-A (MMP-2) was obtained as pro-enzyme (72 kDa) and was activated with 1 mM 4-aminophenylmercuric acetate for 30 min at 37° C. immediately prior to use. Human stromelysin-1-255 (MMP-3) was obtained as a recombinant pro-enzyme isolated from E. coli and activated by heat (1 h, 55° C.).
(§3) The substrate was the commercial quenched-fluorescence peptide Mca-Pro-Leu-Gly-Leu-Dpa-Ala-Arg-NH2, that is (7-methoxycoumarin4-yl)Acetyl-Pro-Leu-Glv-Leu-(3-[2,4-dinitrophenyl]-L-2,3-diamino-propionyl)-Ala-Arg-NH2 (C. G. Knight et al., FEBS Lett.296:263, 1992). The enzymes cleave at the Gly-Leu bond, removing the internally quenching Dpa group. Release of the highly fluorescent peptide Mca-Pro-Leu was followed fluorimetrically at 37° C. using a Perkin Elmer LS-50 Fluorescence Spectrophotometer fitted with a thermostatted four position stirring cell changer. The excitation wavelength was set at 326 nm (bandwidth 5 nm) and the emission at 392 nm (bandwidth 20 nm). Km values of this substrate for the three MMP's is 70 μM or more (Knight et al., reference above). Substrate concentration was 2 μM in the tests, so that we could approximate to unit the term (1+[substrate]/KM) in calculations. The substrate was stable for over 60 minutes in the assay conditions, giving no appreciable increment of fluorescence. Full response was adjusted against 200 nM Mca-Pro-Leu-OH (the released fluorescent peptide) and the instrument was calibrated in the range 0-100 nM Mca-Pro-Leu-OH, corresponding to 0-5% extent of hydrolysis of the 2 μM substrate. The aqueous assay buffer was 50 mM Tris/HCl pH=7.4 containing 0.15 M NaCl, 10 mM CaCl2, 0.01 mM ZnCl2 and 0.05% Brij 35. The concentration of the activated enzyme was determined by titration against representative inhibitors described in the literature and synthesized in house: Roche Ro31-9790 (N. G. Knebel et al., J. Chromatogr. B 673:213, 1995) for MMP-1, and Celltech CT-1418 (compound 1 in S. K. Chander, J. Pharm. Sci. 84:404, 1995) for MMP-2 and MMP-3. Enzyme concentrations in the tests were set at 1.0 nM for MMP-1, 0.04 nM for MMP-2, and 3.0 nM for M-3. Under our assay conditions, we measured keat/KM values of 26900, 669000 and 9740 1/(M×s) for MMP-1, MMP-2 and MMP-3, respectively. All the three enzymes were found stable for over three hours in the assay conditions.
(§4) The inhibition constant for compounds of the present invention was measured at steady state (Ki*; see J. F. Morrison and C. T. Walsh, Adv. Enzymol. Relat. Areas Mol. Biol. 61:201, 1988), upon preincubation experiment, by measuring V0, the initial rate in the absence of inhibitor, and Vs, the steady-state velocity, at different concentrations of inhibitors in the region of their enzyme-inhibitor dissociation constants.
(§5) On a routine basis, 1.94 mL of assay buffer was pre-heated at 37° C. in a vial, 0.02 mL of inhibitor in DMSO (or DMSO only), and 0.02 ml of 100 nM MMP-1 or 4 nM MMP-2 or 300 nM MMP-3 were added, mixed, and the vial was held at 37° C. for 5-180 minutes. Then 0.02 ml of 0.2 mM substrate was added, mixed and transferred into a pre-heated cell. The sample was allowed to equilibrate in the cuvette for 3-5 min at 37° C. against small changes in temperature and changes in the enzyme-inhibitor equilibria related to addition of substrate. After that, the linear increase of fluorescence was monitored over 3-5 min, and the slope (Vo or Vs) was obtained. Inhibitor concentrations were varied to collect data over Vs/Vo ratio ranging from 0.05 to 0.95. The values of Ki* were calculated by nonlinear weighted regression to the tight-binding equation according to Morrison and Walsh above:
(§6) Vs/Vo=[1/(2×Et)]×SQR[(Ki*+It−Et)^2+4×Ki*×Et]−(Ki*+It−Et)
(§7) wherein Et is the total enzyme concentration, and It is the total inhibitor concentration. The following Table I lists Ki* obtained for some representative examples: […]

Data set [4] can be described thus: PK parameters in rats, iv route. Particulars: rat, in vivo, 10-15 mg/kg. Here is the method: As a further example, Table 3 reports clearance and AUC values measured after intravenous administration to rats of a […] of some representative compounds of the present invention.
The target in data set [5] is T2, Human stromelysin-1-255 (MMP-3) (Homo sapiens, UniProt P08254).
T2 construct: host or cells: E. coli
Put plainly: Biochemical assay (Protocol A), Ki at steady state, MMP-3. Particulars: preincubation, 37° C., pH=7.4, read-out: Ki at steady state (Ki*) for inhibition of MMP-3. Here is the method:
as §2, §3, §4, §5, §6, §7

For data set [6], the target named is T3, Human collagenase (MMP-1) (Homo sapiens, UniProt P03956).
T3 sequence (P03956 101-269): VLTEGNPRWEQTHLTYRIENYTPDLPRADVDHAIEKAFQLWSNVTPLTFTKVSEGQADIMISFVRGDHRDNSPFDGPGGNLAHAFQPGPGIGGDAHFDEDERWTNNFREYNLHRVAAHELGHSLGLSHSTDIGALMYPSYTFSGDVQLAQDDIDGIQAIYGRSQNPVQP
Put plainly: Biochemical assay (Protocol A), Ki at steady state, MMP-1. Particulars: preincubation, 37° C., pH=7.4, read-out: Ki at steady state (Ki*) for inhibition of MMP-1. How it is done: as §2, §3, §4, §5, §6, §7

For a further data set, the system named is stifle joints. Briefly: Animal model of tolerability with MMP inhibitors, histological evaluation of stifle joints. In kind it is in vivo. The note with it: rats, intraperitoneal, 10 consecutive days, daily doses of 150 mg/kg or less. From the text: Although MMPs have been recognized as drug targets for at least 20 years, and potent MMP inhibitors described by formula (A) have been disclosed since 1986 or before (e.g., see J. P. Dickens et al., U.S. Pat. No. 4,599,361), no drug of this type has arrived at the market yet. This is not because of questions about the therapeutic potential of MMP inhibitors, but because of problems of “peptide-based hydroxamates”, such as aqueous solubility, metabolic stability, and other desirable properties, oral bioavailability in particular (e.g., J. R. Porter, reference above; J. Hodgson, “Remodelling MMPIs”, Biotechnology 13:554-557, 1995). For example, it is well known that most “peptide-based hydroxamates” of general formula (A) are rapidly glucuronidated, oxidized to the carboxylic acid, and excreted in the bile (e.g., see J. Singh et al., Bioorg. Med. Chem. Lett. 5:337-342, 1995, and other references above). Finally, another type of problem of the known inhibitors described by general formula (A) may be one of tolerability. […] We have extended these observations by developing an animal model of tolerability with MMP inhibitors (S. Castellino et al., unpublished), involving intraperitoneal administration of the latter in rats for 10 consecutive days, and histological evaluation of stifle joints at the end of treatment. […]

For data set [7] the following is noted: clinic; cited from earlier work.
Where [8] appears, read: plasma, dose-normalised ratio of oral to i.v. mean AUC.
Where [9] appears, read: dose-normalised ratio of oral to i.v. mean AUC.

T2 sequence (P08254 100-255 limits assumed): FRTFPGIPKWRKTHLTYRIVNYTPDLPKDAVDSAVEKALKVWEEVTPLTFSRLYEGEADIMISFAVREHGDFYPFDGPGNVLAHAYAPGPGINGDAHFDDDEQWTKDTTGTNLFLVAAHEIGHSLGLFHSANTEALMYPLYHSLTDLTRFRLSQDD

In “Aqueous solubility”, `N[C@H](C(=O)NO)[C@@H](CC1CCCC1)C(=O)N1CCN(Cc2ccc3c(c2)OCO3)CC1` [Example 27, (3S-Amino-2R-cyclopentylmethyl-4-hydroxyamino)succinyl-(4-piperonyl)piperazinamide] registered a solubility of 7100 µg/mL (≈ 16.4 mM). Besides, the bioavailability in data set [1] (plasma, dose-normalised ratio of oral to i.v. mean AUC, read-out: % F (oral bioavailability)) stood at 34%; in data set [2] (setting [8]), 58%. The highest concentration (Cmax) in data set [1] (plasma, read-out: Cmax) was determined as 3130 ng/mL; in [2] (plasma, read-out: Cmax), 7910 ng/mL. The results for the inhibition constant (Ki) in data set [3], in [5] and in data set [6] were 20 nM, 240 nM and 6.5 nM, respectively. Moreover, in data set [4], the AUC was 11300 ng·h/mL. The molecule further displayed a clearance in [4] of 23 mL/min/kg.

With `CNC(=O)[C@@H](NC(=O)[C@@H](CC(=O)NO)CC(C)C)C(C)(C)C` [Ro31-9790], in the data set with stifle joints, the “Histological findings in stifle joints” value was “hypertrophic fibrosis of stifle ligaments, interstitial hypertrophic fibrosis of skeletal muscles, hypertrophic fibroplasia of the periostium and synovium, and chondrosysplasia and decreased endochondrial ossification of the ephyseal plate”.

`Cc1ccc(S(=O)(=O)N[C@H](C(=O)NO)[C@@H](CC(C)C)C(=O)N2CCOCC2)cc1` [Example 12, (4-Hydroxyamino-2R-isobutyl-3S-(4-toluenesulfonyl)amino)succinyl-morpholinamide]: the bioavailability in [2] (setting [8]) amounted to 21%. For the same molecule, the Cmax in data set [2] (plasma, read-out: Cmax) was 2440 ng/mL. Moreover, the Ki was determined as 190 nM in data set [3], 380 nM in data set [5] and 41 nM in [6]. For the same molecule, the area under the curve (AUC) in data set [4] was 6580 ng·h/mL. This molecule registered a clearance in [4] of 39 mL/min/kg.

In the case of `CNC(=O)[C@@H](NC(=O)[C@H](CC(C)C)[C@H](O)C(=O)NO)C(C)(C)C` [marimastat], the Tolerability in humans result in data set [7] is recorded as “muscoloskeletal problems”.

Take `C[C@@H](NC(=O)[C@H](CC1CCCC1)[C@H](N)C(=O)NO)C1CCCCC1` [Example 50, (3S-Amino-2R-cyclopentylmethyl-4-hydroxyamino)succinyl-(1R-cyclohexylethyl)amide]: the Cmax in data set [1] was determined as 49516 ng/mL; in data set [2], 3146 ng/mL. For the same molecule, the figures for the “% F (oral bioavailability)” value in [1] (setting [9]) and in data set [2] (setting [9]) were 70% and 50%, respectively. The inhibition constant Ki in data set [3] stood at 58 nM; in data set [5], 490 nM; in [6], 26 nM.

As usually defined, the solubility is how much of the substance goes into solution per volume. What is called bioavailability is dose-corrected exposure relative to a reference, in per cent. For orientation: Cmax means the maximum level reached in the sampled fluid or tissue. A word on the Ki: it is a dissociation constant, usually derived from enzyme kinetics or from competition with a known ligand. For orientation: AUC means concentration integrated over time. Broadly, the clearance is a measure of how efficiently the substance is removed, as volume per time.
